The text below walks through data of publication PMC4104591 (Structure (London, England : 1993), 2013).

The experiment has as its target mutant-MDM2-p53 complex (Homo sapiens, UniProt Q00987, E23G/S22P). Put plainly: Competitive AIDA-NMR antagonist-induced dissociation assay. Format: binding. Particulars: compared with the WT-MDM2-p53 complex.

Sequence of mutant-MDM2-p53 complex (Q00987 1-125 S22P/E23G, one chain of several): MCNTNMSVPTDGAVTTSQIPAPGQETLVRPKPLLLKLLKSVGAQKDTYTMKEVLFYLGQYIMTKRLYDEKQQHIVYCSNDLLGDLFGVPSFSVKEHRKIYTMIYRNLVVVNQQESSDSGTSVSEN

`COc1ccc(C2=N[C@@H](c3ccc(Cl)cc3)[C@@H](c3ccc(Cl)cc3)N2C(=O)N2CCNC(=O)C2)c(OC(C)C)c1` [nutlin-3]: the “effectiveness in dissociating the mutant-MDM2-p53 complex” value is on record as “less effective”.
